Test: solubility of the compound in toluene
Format: physicochemical

Which Solubility does the source give for C(=C\c1ccc(N(c2ccccc2)c2ccccc2)cc1)/c1ccc(-c2ccc(/C=C/c3ccc4c(c3)c3ccccc3n4-c3ccccc3)cc2)cc1 [PCzDPA, N,N-diphenyl-4-[(E)-2-(4-{4-[(E)-2-(9-phenyl-9H-carbazol-3-yl)ethenyl]phenyl}phenyl)ethenyl]aniline] here?
Its Solubility is greater than 1 wt %.

Which Solubility does the source give for C(=C\c1ccc(N(c2ccccc2)c2cccc3ccccc23)cc1)/c1ccc(-c2ccc(/C=C/c3ccc4c(c3)c3ccccc3n4-c3ccccc3)cc2)cc1 [PCzNA, N-phenyl-N-{4-[(E)-2-(4-{4-[(E)-2-(9-phenyl-9H-carbazol-3-yl)ethenyl]phenyl}phenyl)ethenyl]phenyl}naphthalen-1-amine] here?
The Solubility was greater than 1 wt %.

Source: patent US9112158B1, “Asymmetric styrene derivatives having carbazole and aniline and organic light emitting diode using the same” (National Tsing Hua University, priority 2014, dated 2015)
